This is an account of results in patent publication US11254722B2, “Recombinant proteins and uses thereof” (ACADEMIA SINICA, priority 2017, dated 2022).

Series [1] has as its target T1, nrgECD (amino acids Ser2-Lys246 of neuregulin beta 1) (Homo sapiens, UniProt Q02297).
T1 construct: Ser2-Lys246 of neuregulin beta 1; purchased R&D Sciences or SinoBiologicals
T1 sequence (Q02297 2-246 isoform Q02297-6): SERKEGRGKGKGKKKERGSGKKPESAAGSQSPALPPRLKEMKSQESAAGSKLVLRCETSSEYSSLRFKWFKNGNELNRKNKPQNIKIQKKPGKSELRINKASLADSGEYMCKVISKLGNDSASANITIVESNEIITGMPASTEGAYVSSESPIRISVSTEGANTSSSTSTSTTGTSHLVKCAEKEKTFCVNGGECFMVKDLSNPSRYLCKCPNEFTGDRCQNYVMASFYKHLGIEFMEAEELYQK
As to the kind of experiment: Biacore binding to nrgECD. As to conditions: immobilized nrgECD. The method, then:
(§1) Biacore binding was performed at David Myszka's laboratory at the University of Utah or at the Genomic Research Center at Academia Sinica. Surfaces of binding protein chimera were made via chemical immobilization on a CM4 chip using standard amine coupling chemistry. […] Excess surface carboxyl activated sites on all four flow cells was blocked using the doubly positively charged species ethylenediamine. Binding experiments (but not immobilizations) in HBS-P (10 mM HEPES pH 7.4, 150 mM NaCl, 0.05% P20), The HBS-P was supplemented with BSA at 0.2 mg/mL, or HBS-P was supplemented with 500 mM NaCl (650 mM NaCl, final concentration). Analytes were also reconstituted in the corresponding buffer. All experiments were performed at 25° C. 1/150 dilutions of phosphoric acid were used to regenerate IGFBP3-Fc surfaces and a sequence of 3 M MgCl2 followed by 5 M GuCl was used to regenerate surfaces immobilized with growth factor. Dissociation constants reported below used immobilized binding protein unless noted. Differences between binding constants may be expected between growth factor immobilization and chimera immobilization.
(§2) In this example, erbB4 domain 1 was attached to the N-terminus of the recombinant IGFBP3-Fc or the recombinant IGFBP3-v1v2-Fc.
On the technique in general: In SPR one partner is held on a chip, and binding of the other changes the refractive index at the surface.

Series [2] can be described thus: Pharmacokinetics in mice, serum by Fc ELISA. It counts as in vivo. The method, then:
Grenier high binding ELISA plates were coated with 1 ug/ml goat anti-human Fc antibody (Jackson Immunoresearch) in PBS overnight, and then blocked with Assay Buffer (Invitrogen). Plates were incubated for 2 hours with Chimera or human Fc (Jackson Immunoresearch) as standard; followed by HRP-conjugated anti-human Fc antibody (Jackson Immunoresearch) for 60 minutes. HRP substrate, tetramethyl benzidine, was added; the reaction was stopped with 2 N […], and then the plate was read at 450 nm.
Mice were injected subcutaneously with 100 ug chimera 56662 (4 mg/kg). Two mice per group were used. Serum samples were taken at 0, 4, 24, 48, 72 hours after injection. The concentration of 56662 in serum was determined by use of the hu fc ELISA.
Serum half-life was measured in mice. 100 μg IGFBP3-Fc or 56662 (4 mg/kg) was injected subcutaneously and mouse serum was harvested at 0, 4, 24, 48, 72 hours after injection. Chimera concentration in serum was measured with the Fc ELISA. At 24 hours, the concentration of 56662 was over 2 μg/ml (FIG. 28), and the serum half-time was estimated to be about 43 hours.
Background: In an ELISA, binding on a coated surface is turned into a signal by an enzyme label.

The test system of a further series is 3t3. As to the kind of experiment: 3t3 proliferation assay. It counts as cell-based. As to conditions: PDGF-AB-induced. On the procedure: MCF-7 cells (a breast cancer cell line) were maintained in MEM (GIBCO) plus insulin and NEAA and 10% FBS (Hyclone).
(§3) For the proliferation assay, cells except for HUVEC were seeded at a density of 1,000 to 6,000 in 96 wells in an assay buffer of DMEM/F12 plus 0.2% BSA and 10 ug/ml transferrin. Chemical inhibitors were added after 16-20 hours after plating; IGF-1 or other growth factors or test chimeras in assay buffer were added at the time of plating or 16-20 hours after plating. 5,000 HUVEC ells were plated in poly-L-lysine coated 96 wells in M199 with 1%/FBS and HEPES. After 3 to 4 days of culture, growth was determined by incubating cells with Alamar blue for 4 to 6 hours and then the fluorescence (RFU) at 544/590 nm was read. For long term proliferation assays, cells were plated in the growth media with 5% or 10% FBS at densities of 500 to 10,000 cells per cm^2 growth area and grown for 7 to 21 days. Inhibitors and effectors were added 1-4 days after plating. Cells were exposed to cisplatin or gemcitabine for two days. Medium was renewed twice weekly. At completion, cells were fixed and then stained with Giemsa.

In another series the target is T2, VEGF (Homo sapiens, UniProt P15692).
T2 construct: purchased R&D Systems
T2 sequence (P15692 27-191 isoform P15692-4): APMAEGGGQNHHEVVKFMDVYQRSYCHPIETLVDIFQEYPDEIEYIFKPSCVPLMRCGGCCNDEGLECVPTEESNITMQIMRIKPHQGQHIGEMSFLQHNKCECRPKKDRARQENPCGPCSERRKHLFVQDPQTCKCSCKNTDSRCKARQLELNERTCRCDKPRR
As to the kind of experiment: In vitro proliferation stimulated by VEGF (Table 8). It counts as cell-based. The method, then: as §3
The BP3-VEGF-trap-fc (including the IGFBP3 domains, the VEGFR1 domain 2 and VEGFR2 domain 3 (VEGF-trap (22)), and human immunoglobulin Fc region) broadened the binding to include VEGF-A, VEGF-B, and placental growth factor (PIGF). This BP3-VEGF-trap chimera could inhibit the proliferation stimulated by IGF-1, IGF-2, neuregulin, PDGF-BB, HGF, bFGF, VEGF-A, and PIGF (see, Table 8).

Series [3] relates to MCF-7 breast cancer cells. As to the kind of experiment: MCF-7 proliferation assay. It counts as cell-based. Put shortly: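 MCF-7 cells seeded at 1,000–6,000/well in serum-free DMEM/F12 with 0.2% BSA and 10 ug/ml transferrin; proliferation induced by growth factors (IGF-1, IGF-2, EGF, TGF-a, Nrgbx, b-FGF, amphiregulin); test chimeras added at plating or 16–20 h later. Growth read after 3–4 days by Alamar blue fluorescence (544/590 nm, 4–6 h).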

The target in series [4] is T3, nrgEGF (amino acids Thr176-Lys246 of neuregulin-beta 1) (Homo sapiens, UniProt Q02297).
T3 construct: Thr176-Lys246 of neuregulin-beta 1; purchased R&D Sciences or SinoBiologicals
T3 sequence (Q02297 176-246 isoform Q02297-6): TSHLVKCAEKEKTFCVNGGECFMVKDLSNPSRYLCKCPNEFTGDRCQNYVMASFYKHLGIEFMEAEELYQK
As to the kind of experiment: Biacore binding to nrgEGF. The method, then:
as §1, §2

The target in the next series is T4, EGF (Homo sapiens, UniProt P01133).
T4 construct: purchased R&D Sciences or SinoBiologicals
T4 sequence (P01133 971-1023 limits assumed): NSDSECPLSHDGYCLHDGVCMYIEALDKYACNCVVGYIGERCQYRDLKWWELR
As to the kind of experiment: Binding to EGF. The source says: Table 3 lists the correlation between the IGFBP3 growth factor binding as determined by the inhibition of the proliferation by 56662. The observed inhibitory effects may derive from the growth factor sequestration, and/or IGFBP3 independent effects.

As usually defined, the Kd is the free concentration of one partner at which half of the binding sites on the other are occupied at equilibrium, for simple one-to-one binding. Higher therefore signals lower affinity. In turn, “56662: IGFBP3-Fc, SEQ ID NO: 7; unmodified IGFBP3 fused with the IgG Fc portion [compound 56662]” returned a Kd in series [1] of 5.3 nM. Also, the serum half-life in series [2] (estimated) is 20 to 40 h. Further, the “concentration in serum at 24 hours” value in series [2] (mice, 100 μg (4 mg/kg) subcutaneously, FIG. 28) is listed as “over 2 μg/ml”. The serum half-time entry in series [2] (mice, 100 μg (4 mg/kg) subcutaneously, estimated) is “about 43 hours”. Further, in the series on 3t3, the “In vitro inhibition of proliferation, PDGF-AB” value was “yes (3t3)”. Besides, in the series with VEGF, the “inhibition of proliferation stimulated by VEGF” value is on record as “no”. Besides, the “In vitro inhibition of proliferation, EGF” value in series [3] (EGF-induced, MCF-7 cells) is reported as “yes”. Further, the “In vitro inhibition of proliferation, IGF-1” value in series [3] (IGF-1-induced, MCF-7 cells) was “yes”. Besides, the “In vitro inhibition of proliferation, IGF-2” value in series [3] (IGF-2-induced, MCF-7 cells) was “yes”. Also, in series [3] (TGF-α-induced, MCF-7 cells), the “In vitro inhibition of proliferation, TGF-α” value is “yes”. The “In vitro inhibition of proliferation, VEGF-165” value in series [3] (VEGF-165, MCF-7 cells per footnote) is given as “no”. Besides, the “In vitro inhibition of proliferation, bFGF” value in series [3] (bFGF-induced, MCF-7 cells) is reported as “yes”. Moreover, the “inhibition of FBS-induced proliferation of MCF-7” value in series [3] (fetal bovine serum, FIG. 1, FIG. 4) was “inhibited”. Also, the “inhibition of proliferation induced by long-R3-IGF-1” value in series [3] (high concentrations of 56662, FIG. 2) was “can inhibit”. For the same substance, in series [3] (neuregulin-induced, MCF-7 cells), the “In vitro inhibition of proliferation, neuregulin” value is recorded as “yes”. In series [4], the “Kd nrgEGF” value is recorded as “No binding”. Besides, in the series with EGF, the “binding to EGF” value is “did not bind”.
